Reference: patent publication US5618675A, “Methods and compositions for detecting lipopolysaccharides using CAP18 fragments” (Panorama Research, Inc., dated 1997)

Tested on: multiple drug-resistant Mycobacterium tuberculosis
Experiment: Antimicrobial activity
Type: cell-based
Conditions: range 0-20 μg/ml

Row | Substance | activity versus multiple drug-resistant Mycobacterium tuberculosis
1 | RNIP: reactive nitrogen inhibitory protein, amino acids 135-171 of SEQ ID NO:4 (rabbit CAP18 C-terminus); purified from granulocytes or synthetic (#197) (GLRKRLRKFRNKIKEKLKKIGQKIQGLLPKLAPRTDY) | inactive
2 | 36-1: synthetic rabbit RNIP-derived fragment, amino acids 135-166 of SEQ ID NO:4 (GLRKRLRKFRNKIKEKLKKIGQKIQGLLPKLA) | inactive
